Results published in the supplement of paper PMC10307832.

Key:
Assay in all cases: relative viability (nuclei count vs DMSO), 5 days (fraction); higher = more cells survive
[1] = compound: C1CSC2=C(C(=O)N1)SC3=C2C=C(C=C3)O [kb NB 142-70] + Cc1cc(Nc2cc(N3CCN(C)CC3)nc(Sc3ccc(NC(=O)C4CC4)cc3)n2)n[nH]1 [Tozasertib] (partner 0.1 µM)
Procedure, shortened: (§1)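 Five library-drug doses in √10 steps were combined with a fixed anchor-drug dose, or a single drug was given alone, by pin tool to lung cancer cell lines in 1536-well plates the day after seeding. Nuclei were stained and counted after 5 days. Relative viability is the nuclei count in treated wells over that in vehicle wells, taken as the median of duplicate plates.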

[2] = compound: NCC(=O)Nc1ccc(-n2nc(C(F)(F)F)cc2-c2ccc3c(ccc4ccccc43)c2)cc1 + C[C@]1(O)C[C@@H](c2nc(-c3ccc4ccc(-c5ccccc5)nc4c3)c3c(N)nccn32)C1 [Linsitinib] (partner 1 µM)
Procedure, shortened: as §1

[3] = compound: NCC(=O)Nc1ccc(-n2nc(C(F)(F)F)cc2-c2ccc3c(ccc4ccccc43)c2)cc1 + CC1(C)CCC(c2ccc(Cl)cc2)=C(CN2CCN(c3ccc(C(=O)NS(=O)(=O)c4ccc(N[C@H](CCN5CCOCC5)CSc5ccccc5)c(S(=O)(=O)C(F)(F)F)c4)cc3)CC2)C1 [Navitoclax] (partner 0.5 µM)
Procedure, shortened: as §1

[4] = compound: NCC(=O)Nc1ccc(-n2nc(C(F)(F)F)cc2-c2ccc3c(ccc4ccccc43)c2)cc1 + CC(=O)c1c(C)c2cnc(Nc3ccc(N4CCNCC4)cn3)nc2n(C2CCCC2)c1=O [Palbociclib] (partner 0.5 µM)
Procedure, shortened: as §1

Row | Cell Line | relative viability ([1]; first compound 0.1 µM) | relative viability ([1]; first compound 1 µM) | relative viability ([1]; first compound 3.162 µM) | relative viability ([2]; first compound 0.02 µM) | relative viability ([2]; first compound 0.06325 µM) | relative viability ([2]; first compound 0.2 µM) | relative viability ([2]; first compound 0.6325 µM) | relative viability ([2]; first compound 2 µM) | relative viability ([3]; first compound 0.02 µM) | relative viability ([3]; first compound 0.06325 µM) | relative viability ([3]; first compound 0.2 µM) | relative viability ([3]; first compound 0.6325 µM) | relative viability ([3]; first compound 2 µM) | relative viability ([4]; first compound 0.02 µM) | relative viability ([4]; first compound 0.06325 µM) | relative viability ([4]; first compound 0.2 µM) | relative viability ([4]; first compound 0.6325 µM) | relative viability ([4]; first compound 2 µM)
1 | NCI-H23 | 0.381 | 0.37 | 0.241 | 0.484 | 0.582 | 0.662 | 0.476 | 0.552 | 0.821 | 0.847 | 0.801 | 0.903 | 0.855 | 0.493 | 0.548 | 0.535 | 0.507 | 0.553
2 | NCI-H1395 | 0.724 | 0.784 | 0.729 | 0.997 | 0.986 | 1.15 | 1.06 | 1.18 | 1.12 | 1.16 | 1.16 | 1.11 | 1.22 | 0.702 | 0.678 | 0.617 | 0.621 | 0.614
3 | 201T | 0.875 | 0.974 | 1.03 | 0.957 | 1.01 | 1.09 | 1.09 | 1.04 | 1.26 | 1.18 | 1.24 | 1.25 | 1.22 | 0.342 | 0.374 | 0.366 | 0.363 | 0.351
4 | NCI-H460 | 0.541 | 0.397 | 0.254 | 0.823 | 0.757 | 0.855 | 0.717 | 0.738 | 1.17 | 1.11 | 1.13 | 1.07 | 1.06 | 0.143 | 0.2 | 0.251 | 0.171 | 0.2
5 | HCC-15 | 0.427 | 0.471 | 0.227 | 0.865 | 0.871 | 0.897 | 0.891 | 0.944 | 0.746 | 0.731 | 0.716 | 0.716 | 0.693 | 0.714 | 0.732 | 0.763 | 0.742 | 0.749
6 | NCI-H441 | 0.663 | 0.581 | 0.302 | 0.634 | 0.486 | 0.509 | 0.657 | 0.668 | 0.521 | 0.577 | 0.654 | 0.627 | 0.539 | 0.242 | 0.258 | 0.265 | 0.228 | 0.25
7 | EPLC-272H | 0.353 | 0.217 | 0.143 | 1.38 | 1.06 | 1.18 | 1.22 | 1.18 | 1.25 | 1.07 | 1.15 | 1 | 1.09 | 0.332 | 0.306 | 0.36 | 0.335 | 0.326
